Reference: patent US20230277125A1, “BREATH-BASED THERAPEUTIC DRUG MONITORING METHOD” (UNIVERSITÄTS-KINDERSPITAL BEIDER BASEL, priority 2020, published 2023)

How the values were obtained:
[1] = Blood-based therapeutic drug monitoring of serum valproate (immunoassay total, GC-MS free); assay type: in vivo, human
Excerpt: FIG. 2 presents an analysis pipeline that includes constructing a response vector matrix, splitting the dataset into training and test set, applying feature reduction analysis to […] in order to identify predictors, training mathematical model based on selected predictors, applying selected predictors and mathematical model to the test set to determine the concentration of valproate in a subject, which matches well the serum concentration determined using the blood analysis, as determined in an immunoassay (total valproate concentration) and by GC-MS (free valproate concentration).
The range of pharmacotherapies is described in AED rows. The patients were receiving either a single drug or combinations of up to three drugs. The bottom three rows identify the clinical outcome as described by side effects (mild or severe), drug response (responder or non-responder), and EEG (normal or abnormal). The grey bars on the top show the concentrations (mg/L) of free and total serum VPA (level 0 was assigned to all the measurements of subjects' not taking VPA, missing bars in free VPA represents the unavailability of data). Dark (light) grey bars indicate that the measurements were outside (inside) the therapeutic range (i.e. 50-100 mg/L for total and 5-10 mg/L for free VPA). Thus, for example, patient 20 suffers from DEE. During the first visit (i.e. 20-1), the patient was receiving a combination of LTG, LEV, and VPA. Total serum VPA concentration was 104 mg/L (i.e. beyond the therapeutic range) and free serum VPA could not be measured. At this point in time, the patient had only mild side effects, but was not responding to the medication, and EEG was abnormal. On the second visit, the patient was unable to perform breath test. During the third visit (i.e. 20-3), LEV had been removed, total serum VPA concentration was 108 mg/L and free serum VPA concentration was 12.7 mg/L (both levels above the therapeutic range). Side effects were still mild, EEG was back to normal, but the patient was still not responding to the pharmacotherapy. AED=antiepileptic drugs, EEG=electroencephalography, VPA=valproic acid, LTG=lamotrigine, and LEV=levetiracetam.
59 subjects (32 males and 27 females) between the ages of 4 and 20 (see FIG. 12A for details), undergoing treatment with antiepileptic drugs (AEDs) with the necessity of therapeutic drug monitoring (TDM) were enrolled in the study Immediately after blood drawn for TDM, subjects performed prolonged exhalations directly into SESI-HRMS system, comprising SUPER-SESI ionization device (Fossil Ion Technology, Spain) coupled to a Q Exactive Plus HRMS (Thermo Fisher Scientific, Germany). During the course of study, wherever blood-based TDM were performed, subjects also provided exhalations, leading to multiple measurements from some subjects. In total 75 successful measurements (from 48 subjects) were performed. […] In order to determine the feasibility of TDM of an example drug valproate by using mass spectroscopy of samples of breath exhaled by subjects, the subjects were divided into two groups i.e. valproate users and non-valproate users. […] Moreover, a different relationship between total valproate serum concentration and valproate dose for subjects with mono and multi-therapy compared to that known in the literature (Duran, 1993) was observed (FIG. 12D).

[2] = human, in vivo
Excerpt: It will be further noted that according to the methods of the present invention it is possible to measure the level of metabolites that belong to different metabolic pathways. Therefore, by measuring the level of said metabolites and comparing them with each other, it is also possible to compare the activities of said different metabolic pathways. […] FIG. 3 presents the time dependence of the relative activity of two oxidation pathways of valproate, β-oxidation that leads to 3-heptanone, and ω1-oxidation that results in 2-propyl-4-pentanolactone. The activities of both oxidation pathways are presented herein as a ratio between the nAUC parameters for m/z peaks due to compounds belonging to each of the pathways, and presented in a logarithmic scale. Both increase of in 2-propyl-4-pentanolactone to 3-heptanone ratio, as well as decrease thereof can be observed over time, and observed ratios span more than 100-fold range. Herein, values of nAUC parameters for the m/z peaks due to both 3-heptanone and 2-propyl-4-pentanolactone (accordingly, peaks at m/z of 115.11176 and 143.10659 in FIG. 14) are predictors for the previously trained mathematical model of the present invention.
FIG. 3 presents the time dependence of the relative activity of two oxidation pathways of valproate, β-oxidation that leads to 3-heptanone, and […] that results in 2-propyl-4-pentanolactone. […]

[3] = human subject; cited from earlier work
[4] = patient 20, third visit (20-3), LEV removed

total valproate for a given dose, multi-therapy vs mono-therapy ([1]; FIG. 12D): lower than those of mono-therapy | relationship between participants' age and serum free valproate fraction ([1]; ages 4 to 20, FIG. 12C): inversely proportional relationship | total serum VPA concentration ([1]; patient 20, first visit (20-1), combination of LTG, LEV and VPA): 104 mg/L | free serum VPA concentration [1, 4]: 12.7 mg/L | total serum VPA concentration [1, 4]: 108 mg/L | relationship between serum concentrations of free and total valproate ([1]; study participants, FIG. 12B): non-linear relationship | span of observed 2-propyl-4-pentanolactone to 3-heptanone ratios [2]: more than 100 fold
Compound: CCCC(CCC)C(=O)O [VPA, Valproic acid]
fraction directly excreted in urine without chemical modification [3]: Less than three percent | fraction modified with coenzyme A and shuttled to mitochondria (β-oxidation, 3-oxovalproate) [3]: 12% | fraction oxidised at position 4 (4-hydroxyvalproate) [3]: 2.7% | fraction oxidised at position 5 (5-hydroxyvalproate) [3]: 2.3% | fraction undergoing direct glucuronidation [3]: 80%
